Reference: ChEMBL document CHEMBL1154884, “Synthesis and biological evaluation of triazol-4-ylphenyl-bearing histone deacetylase inhibitors as anticancer agents” (J Med Chem, 2010)

Columns and labels:
Histone deacetylase 3 = Histone deacetylase 3 (Homo sapiens, UniProt O15379)
Description: Inhibition of HDAC3 assessed as blockade of decorboxylation of carboxyfluorescein labeled acetylated peptide substrate after 17 hrs

Histone deacetylase 8 = biological target: T1, Histone deacetylase 8 (Homo sapiens, UniProt Q9BY41)
T1 sequence (Q9BY41 whole entry): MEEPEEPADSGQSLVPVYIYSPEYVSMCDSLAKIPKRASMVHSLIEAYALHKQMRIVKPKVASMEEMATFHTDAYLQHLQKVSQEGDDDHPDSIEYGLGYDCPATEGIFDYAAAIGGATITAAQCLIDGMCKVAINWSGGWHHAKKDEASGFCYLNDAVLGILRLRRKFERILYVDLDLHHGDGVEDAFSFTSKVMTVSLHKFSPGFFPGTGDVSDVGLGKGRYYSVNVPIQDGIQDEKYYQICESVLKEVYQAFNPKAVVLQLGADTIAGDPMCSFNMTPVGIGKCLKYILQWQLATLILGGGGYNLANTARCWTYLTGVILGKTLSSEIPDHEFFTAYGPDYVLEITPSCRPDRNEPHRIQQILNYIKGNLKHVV
Description: Inhibition of HDAC8 assessed as blockade of decorboxylation of carboxyfluorescein labeled acetylated peptide substrate after 17 hrs

[1] = biological target: T2, Polyamine deacetylase HDAC10 (Homo sapiens, UniProt Q969S8)
T2 sequence (Q969S8 whole entry): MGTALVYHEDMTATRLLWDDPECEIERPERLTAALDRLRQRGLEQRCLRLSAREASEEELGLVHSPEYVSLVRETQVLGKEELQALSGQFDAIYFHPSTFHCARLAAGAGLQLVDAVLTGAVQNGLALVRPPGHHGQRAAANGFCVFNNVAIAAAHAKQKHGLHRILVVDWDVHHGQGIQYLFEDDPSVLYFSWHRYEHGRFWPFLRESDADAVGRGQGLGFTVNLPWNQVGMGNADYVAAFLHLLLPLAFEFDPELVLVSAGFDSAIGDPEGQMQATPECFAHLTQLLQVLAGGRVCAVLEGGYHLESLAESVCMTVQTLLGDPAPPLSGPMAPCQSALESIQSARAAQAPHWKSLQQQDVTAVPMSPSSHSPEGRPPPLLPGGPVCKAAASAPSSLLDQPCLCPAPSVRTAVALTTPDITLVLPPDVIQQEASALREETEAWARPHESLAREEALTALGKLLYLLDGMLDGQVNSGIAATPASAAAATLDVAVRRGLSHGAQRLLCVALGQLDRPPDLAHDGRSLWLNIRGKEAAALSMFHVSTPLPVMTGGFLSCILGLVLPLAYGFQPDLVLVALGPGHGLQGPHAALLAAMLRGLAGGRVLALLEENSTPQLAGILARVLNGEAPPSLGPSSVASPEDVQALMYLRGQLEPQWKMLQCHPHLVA
Description: Inhibition of HDAC10 assessed as blockade of decorboxylation of carboxyfluorescein labeled acetylated peptide substrate after 17 hrs

[2] = biological target: T3, Protein deacetylase HDAC6 (Homo sapiens, UniProt Q9UBN7)
T3 sequence (Q9UBN7 whole entry): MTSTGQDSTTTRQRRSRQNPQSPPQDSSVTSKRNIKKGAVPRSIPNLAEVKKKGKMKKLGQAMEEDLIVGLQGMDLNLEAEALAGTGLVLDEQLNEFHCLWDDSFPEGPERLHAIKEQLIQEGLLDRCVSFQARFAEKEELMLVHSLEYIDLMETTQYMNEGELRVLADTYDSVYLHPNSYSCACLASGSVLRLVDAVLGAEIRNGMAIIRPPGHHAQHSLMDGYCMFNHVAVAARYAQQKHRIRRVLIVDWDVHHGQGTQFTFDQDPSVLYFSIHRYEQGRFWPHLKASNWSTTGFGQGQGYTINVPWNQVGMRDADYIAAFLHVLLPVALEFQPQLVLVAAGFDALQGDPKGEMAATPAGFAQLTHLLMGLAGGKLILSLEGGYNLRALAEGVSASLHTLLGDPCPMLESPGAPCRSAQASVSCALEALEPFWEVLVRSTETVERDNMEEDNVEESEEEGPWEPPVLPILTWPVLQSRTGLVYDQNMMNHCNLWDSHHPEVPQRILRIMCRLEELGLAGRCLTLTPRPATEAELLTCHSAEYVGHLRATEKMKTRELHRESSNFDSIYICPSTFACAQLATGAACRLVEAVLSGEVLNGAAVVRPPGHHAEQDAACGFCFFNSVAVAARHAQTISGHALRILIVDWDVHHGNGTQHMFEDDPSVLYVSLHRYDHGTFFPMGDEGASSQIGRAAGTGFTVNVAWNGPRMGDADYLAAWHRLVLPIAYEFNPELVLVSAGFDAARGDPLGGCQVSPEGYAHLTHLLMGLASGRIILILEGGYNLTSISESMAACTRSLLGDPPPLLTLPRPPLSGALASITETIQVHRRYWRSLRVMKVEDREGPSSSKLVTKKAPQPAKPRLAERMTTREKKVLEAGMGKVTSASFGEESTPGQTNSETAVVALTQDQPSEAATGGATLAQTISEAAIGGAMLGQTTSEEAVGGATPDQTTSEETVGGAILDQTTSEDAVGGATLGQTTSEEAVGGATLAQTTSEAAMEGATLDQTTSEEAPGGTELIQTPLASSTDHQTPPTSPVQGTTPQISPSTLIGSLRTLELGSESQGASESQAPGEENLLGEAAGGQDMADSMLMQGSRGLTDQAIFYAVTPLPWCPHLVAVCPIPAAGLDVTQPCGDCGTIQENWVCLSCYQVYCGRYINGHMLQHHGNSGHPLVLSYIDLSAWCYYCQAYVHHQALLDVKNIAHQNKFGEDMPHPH
Description: Inhibition of HDAC6 assessed as blockade of decorboxylation of carboxyfluorescein labeled acetylated peptide substrate after 17 hrs

BXPC-3 = experiment: cells; conditions: Homo sapiens, BXPC-3, 72 h
HuP-T3 = experiment: cells; conditions: Homo sapiens, HuP-T3, 72 h
MIA PaCa-2 = experiment: cells; conditions: Homo sapiens, MIA PaCa-2, 72 h
cells [3] = conditions: Homo sapiens, Panc 04.03, 72 h
cells [4] = conditions: Homo sapiens, SU.86.86, 72 h
Histone deacetylase 2 = Histone deacetylase 2 (Homo sapiens, UniProt Q92769)
Chain of Histone deacetylase 2 (Q92769 whole entry): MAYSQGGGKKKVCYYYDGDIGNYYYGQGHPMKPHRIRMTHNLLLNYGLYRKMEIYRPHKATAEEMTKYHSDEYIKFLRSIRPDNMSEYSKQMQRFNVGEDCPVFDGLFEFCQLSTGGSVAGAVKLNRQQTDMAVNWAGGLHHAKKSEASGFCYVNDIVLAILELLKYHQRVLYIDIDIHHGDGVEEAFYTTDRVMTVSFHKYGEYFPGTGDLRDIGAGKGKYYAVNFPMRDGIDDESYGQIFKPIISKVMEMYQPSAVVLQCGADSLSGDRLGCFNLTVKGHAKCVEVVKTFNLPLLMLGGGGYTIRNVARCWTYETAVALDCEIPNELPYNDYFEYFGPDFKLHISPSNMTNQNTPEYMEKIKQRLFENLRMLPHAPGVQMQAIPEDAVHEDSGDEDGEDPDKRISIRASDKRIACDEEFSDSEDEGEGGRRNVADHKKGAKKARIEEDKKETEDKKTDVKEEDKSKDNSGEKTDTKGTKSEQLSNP
Description: Inhibition of HDAC2 assessed as blockade of decorboxylation of carboxyfluorescein labeled acetylated peptide substrate after 17 hrs

Histone deacetylase 1 = Histone deacetylase 1 (Homo sapiens, UniProt Q13547)
Chain of Histone deacetylase 1 (Q13547 whole entry): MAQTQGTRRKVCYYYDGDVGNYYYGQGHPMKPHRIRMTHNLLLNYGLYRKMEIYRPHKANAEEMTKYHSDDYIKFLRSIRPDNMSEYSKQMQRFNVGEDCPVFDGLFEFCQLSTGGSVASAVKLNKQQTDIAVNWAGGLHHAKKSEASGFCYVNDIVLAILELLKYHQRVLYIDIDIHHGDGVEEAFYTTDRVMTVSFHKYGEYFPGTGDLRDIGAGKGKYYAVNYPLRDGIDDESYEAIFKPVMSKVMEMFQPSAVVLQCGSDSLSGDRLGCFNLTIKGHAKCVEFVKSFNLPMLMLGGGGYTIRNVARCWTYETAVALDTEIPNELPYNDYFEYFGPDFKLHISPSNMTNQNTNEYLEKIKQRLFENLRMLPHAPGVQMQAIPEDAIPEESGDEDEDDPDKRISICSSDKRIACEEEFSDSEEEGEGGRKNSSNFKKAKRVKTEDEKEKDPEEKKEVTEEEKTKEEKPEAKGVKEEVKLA
Description: Inhibition of HDAC1 assessed as blockade of decorboxylation of carboxyfluorescein labeled acetylated peptide substrate after 17 hrs

Chain of Histone deacetylase 3 (O15379 whole entry): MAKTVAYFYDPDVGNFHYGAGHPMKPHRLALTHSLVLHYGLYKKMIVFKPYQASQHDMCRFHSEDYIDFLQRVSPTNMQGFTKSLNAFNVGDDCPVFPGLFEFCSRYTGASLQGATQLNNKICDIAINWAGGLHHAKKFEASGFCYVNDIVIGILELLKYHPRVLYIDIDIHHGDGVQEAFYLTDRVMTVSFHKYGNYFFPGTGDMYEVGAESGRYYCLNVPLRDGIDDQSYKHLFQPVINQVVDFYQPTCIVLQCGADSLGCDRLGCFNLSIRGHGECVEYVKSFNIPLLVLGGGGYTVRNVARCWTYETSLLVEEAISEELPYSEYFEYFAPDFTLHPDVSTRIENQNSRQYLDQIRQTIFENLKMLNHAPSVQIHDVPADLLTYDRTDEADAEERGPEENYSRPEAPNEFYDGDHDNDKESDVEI

Row | Structure (SMILES) | IC50 (Histone deacetylase 8) | IC50 [1] | IC50 [2] | IC50 (Histone deacetylase 2) | IC50 (Histone deacetylase 1) | IC50 (Histone deacetylase 3) | IC50 (BXPC-3) | IC50 (HuP-T3) | IC50 (MIA PaCa-2) | IC50 (cells [3]) | IC50 (cells [4])
1 | Nc1ccccc1NC(=O)CCCCCCC(=O)Nc1cccc(-n2cc(-c3ccccc3)nn2)c1 | > 30000 nM | > 30000 nM | > 30000 nM | – | – | 122 nM | > 50000 nM | > 50000 nM | > 50000 nM | > 50000 nM | 32000 nM
2 | O=C(CCCCCCC(=O)Nc1cccc(-c2cn(-c3cc(CO)cc(CO)c3)nn2)c1)NO | 1320 nM | 5.8 nM | 1.9 nM | 27.8 nM | 5.7 nM | – | – | – | – | – | –
3 | O=C(CCCCCCC(=O)Nc1cccc(-c2cn(-c3ccc(I)cc3)nn2)c1)NO | > 30000 nM | 10.7 nM | 2.2 nM | 24.6 nM | 8 nM | – | 1100 nM | 1400 nM | 2330 nM | 2340 nM | 7700 nM
4 | O=C(CCCCCCC(=O)Nc1cccc(-c2cn(C3CCCCC3)nn2)c1)NO | 1190 nM | 9.8 nM | 3.3 nM | 27.5 nM | 8.6 nM | 3.7 nM | 4000 nM | 400 nM | 100 nM | 500 nM | 100 nM
5 | O=C(CCCCCCC(=O)Nc1cccc(-n2cc(C3CCCCC3)nn2)c1)NO | 2750 nM | 16.6 nM | 4.3 nM | 48.2 nM | 12.1 nM | 5.3 nM | 2000 nM | 400 nM | 100 nM | 500 nM | 900 nM
6 | O=C(CCCCCCC(=O)Nc1cccc(-c2cn(-c3ccccc3)nn2)c1)NO | – | – | – | – | – | – | – | – | – | < 500 nM | –

Second part, led by results:

Row | IC50 (Histone deacetylase 8) | IC50 [1] | IC50 [2] | IC50 (Histone deacetylase 2) | IC50 (Histone deacetylase 1) | Structure (SMILES) | IC50 (Histone deacetylase 3) | IC50 (BXPC-3) | IC50 (HuP-T3) | IC50 (MIA PaCa-2) | IC50 (cells [3]) | IC50 (cells [4])
7 | 5220 nM | 14.5 nM | 2.9 nM | 28.5 nM | 8.7 nM | O=C(CCCCCCC(=O)Nc1cccc(-c2cn(-c3ccc(C(F)(F)F)cc3)nn2)c1)NO | – | – | – | – | – | –
8 | 12000 nM | 32.8 nM | 8.4 nM | 60 nM | 31.9 nM | O=C(CCCCCCC(=O)Nc1cccc(-c2cn(-c3ccc(F)cc3)nn2)c1)NO | – | – | – | – | – | –
9 | – | – | – | – | 5.3 nM | O=C(CCCCCCC(=O)Nc1cccc(-c2cn(-c3cc(F)cc(F)c3)nn2)c1)NO | – | – | – | – | – | –
10 | 4180 nM | 6.8 nM | 3.1 nM | 25.1 nM | 4.6 nM | O=C(CCCCCCC(=O)Nc1cccc(-n2cc(-c3ccccc3)nn2)c1)NO | – | – | – | – | – | –
